Patent US20220110985A1, “NUTRITIONAL COMPOSITION COMPRISING 2'FUCOSYLLACTOSE AND 3'GALACTOSYLLACTOSE” (N.V. Nutricia, priority 2019, published 2022)

Tests used:
[1] = test system: human peripheral blood mononuclear cells (PBMCs); test: PBMC cell activity (WST-1); format: cell-based; settings: after 24 h; non-stimulated and CD3/CD28 stimulated conditions
Method: Isolation of PBMC from healthy donors: Human peripheral blood mononuclear cells (PBMC) from healthy donors were isolated from buffy coats (Sanquin, Amsterdam, the Netherlands). PBMC were obtained by centrifugation using Leucosep tubes (Greiner Bio-One). PBMC were collected and washed in PBS (Gibco, Thermo Fisher Technologies)+2% heat-inactivated FCS (Invitrogen), followed by hypotonic lysis of erythrocytes with sterile lysis buffer (0.15 M NH4Cl, 0.01 M KHCO3 and 0.1 mM EDTA, pH of 7.4 at 4° C., all from Merck, Darmstadt, Germany). After lysis, the PBMC were resuspended in freezing medium (70% RPMI 1640 medium (Gibco, Thermo Fisher Technologies) supplemented with 10% heat-inactivated FCS and 100 U/ml penicillin-streptomycin, 20% heat-inactivated FCS and 10% DMSO (Sigma)) and cryopreserved.
PBMC activation model: PBMC (0.2·10^6 cell/well) were cultured in 96-well flat bottom plates (Corning). For 24 hours the cells were pre-incubated with 2′-FL (Jennewein), 3′-GL (0-0.3% w/v; Carbosynth) or sodium butyrate (0.2 mM; Sigma Aldrich) and combinations thereof. Subsequently, the cells were CD3/CD28-activated (Pelicluster CD3 and Pelicluster CD28, Sanquin) for an additional 24 hours. After incubation, IFNγ was measured by ELISA in the supernatants (see below). To determine cell activity after stimulation, PBMC were incubated with cell proliferation reagent WST-1 (10 μl; Roche) and/or 10% Triton (5 μl; negative control). After 3 hours, absorbance was measured at OD450 nm and OD650 nm and cell activity was calculated according to manufacturer's instructions.

fecal slurry microbiota = test: Anaerobic fermentation of fecal slurry (BioLector Pro): acidification, microbiota composition; format: cell-based, human infant; settings: no pathogen spiking
Method: Anaerobic fermentation of fecal slurry samples was tested in a BioLector Pro microfluidics mini multifermentor. Faecal slurry samples were collected from breast fed infants and from formula fed infants. These faecal slurry samples were processed by adding 0.6 grams feces in 40 ml Baby Reichardt V.6 medium+mucus+Ammonium sulfate+lactate and acetate. The resulting solutions were inserted to the BioLector Pro microfluidics mini multifermentor. The test legs were supplemented with 3-GL, 2′-FL, 3′-GL+2′-FL, and GOS/FOS. The control leg was supplemented with sterile water.
In addition the test legs were supplemented with Clostridium difficile C153 (difficile agar), Salmonella enteriditis S29 (XLD agar), Cronobacter sakasakii E71 (chromogenic agar) or Klebsiella pneumonia K2 (Simons citrate inositol agar). For every NDO and for the control also a pathogen free culture was prepared.
After fermentation the fermented solutions were tested for SCFA content (in particular acetic acid, propionic acid, butyric acid and isobutyric acid), ammonia content, lactate content and pathogen concentration. Also DNA-isolation+identification and 16s sequencing was performed to determine the composition of the microbiota.
A 32 well plate that can handle low pH was used. The wells of this plate were filled with fecal solution. […]

Caco-2 cell monolayer = test: DON-induced impairment of Caco-2 cell monolayer integrity (TEER, lucifer yellow flux); format: cell-based, human; settings: for effect on DON-induced loss of epithelial barrier integrity (TEER, LY flux), in words: 24 h pretreatment (GLs 0.75 wt. %; 2′-FL 1 mg/ml), then DON 4.2 μM 24 h
Method: Beta1,3′-galactosyl-lactose (beta3′-GL), beta1,4′-galactosyllactose (beta4′-GL) and beta1,6′-galactosyl-lactose (beta6′-GL) were obtained from Carbosynth (Berkshire, UK). Alpha1,3′-galactosyl-lactose (alpha3′-GL) was obtained from Elicityl (Crolles, France). Purified deoxydivalenol (DON) (D0156; Sigma Aldrich, St Luis, Mo., USA) was dissolved in pure ethanol and stored at −20° C. Human epithelial colorectal adenocarcinoma (Caco-2) cells were obtained from American […] (Code HTB-37) (Manasse, Va., USA, passage 90-102).
Caco-2 cells were used according to established methods. In brief: cells were cultured in Dulbecco's modified Eagle medium (DMEM) and seeded at a density of 0.3×10^5 cells into 0.3 cm^2 high pore density (0.4 μm) inserts with a polyethylene terephthalate membrane (BD Biosciences, Franklin Lakes, N.J., USA) placed in a 24-well plate. The Caco-2 cells were maintained in a humidified atmosphere of 95 air and 5% CO2 at 37° C.
Caco-2 cell monolayers were thus grown in a transwell system, which is a model for intestinal barrier function. The monolayers were pretreated for 24 h with different GLs, including beta3′-GL, alpha3′-GL, beta4′-GL and beta6′-GL in a concentration of 0.75 wt. % of the GL, before being exposed to the fungal toxin deoxynivalenol (DON), which is a trigger and model compound to impair intestinal barrier. DON was diluted to a final concentration of 4.2 μM in complete cell medium and added to the apical side as well as to the basolateral side of the transwell inserts. […] Incubation with DON was 24 h.
Measurements of the transepithelial electrical resistance (TEER) and lucifer yellow (LY) permeability were conducted to investigate barrier integrity. For TEER measurements a Millicel-ERS voltohmmeter connected to a pair of chopsticks electrodes was used to measure the TEER values. Results are expressed as a percentage of the initial value. For paracellular tracer flux assay the membrane impermeable lucifer yellow (LY) (Sigma, St Luis, Mo., USA) was added in a concentration of 16 μg/ml to the apical compartment in the transwell plate for 4 h, and the paracellular flux was determined by measuring the fluorescence intensity in the basolateral compartment with a spectrophotofluorimeter (FLUOstar Optima, BMG Labtech, Offenburg, Germany) set at excitation and emission wavelengths of 410 and 520 nm, respectively. Release of interleukin-8 (IL-8 or CXCL8), which is a typical marker for inflammation, was quantified in the medium of the apical side and the basolateral side of the Caco-2 transwell inserts in response to the treatments. CXCL8 concentrations were measured by using the human IL-8 ELISA assay (BD Biosciences, Pharmingem, San Diego, Calif., USA) according to manufacturer's instructions. For more details on materials and methods see Akbari et al, 2016, Eur J Nutr. 56(5):1919-1930.

[2] = Caco-2 monolayer, DON 4.2 μM, 2′-FL 1 mg/ml

| Compound | Immune cell activity as measured by WST, in words [1] | rate of initial acidification (fecal slurry microbiota) | effect on DON-induced loss of epithelial barrier integrity (TEER, LY flux), in words (Caco-2 cell monolayer) | extent of fermentation as measured by NaOH consumption, i.e. acid production (fecal slurry microbiota; both inocula) | Lucifer yellow flux (Caco-2 cell monolayer; [2]) | TEER (% of initial value) Mean (s.e.) (Caco-2 cell monolayer; [2]) |
| --- | --- | --- | --- | --- | --- | --- |
| Gal (beta 1-3)-Gal (beta 1-4)-Glc [3′-GL] | decrease in activation | high | prevented the DON-induced loss of epithelial barrier integrity |  |  |  |
| C[C@@H]1O[C@@H](O[C@H]2[C@H](O[C@H]3[C@H](O)[C@@H](O)C(O)O[C@@H]3CO)O[C@H](CO)[C@H](O)[C@@H]2O)[C@@H](O)[C@H](O)[C@@H]1O (stereo partly drawn) [2′-FL, α-L-Fuc-(1→2)-β-D-Gal-(1→4)-D-Glc] | significantly increased |  | statistically significantly prevent the DON induced reduction in TEER and increase in LYF | slower and lower acidification | 446.4 (8.302)^∧ ng/ml (cm^2xh) | 42.79 (0.844)^∧∧ % of initial value |
